Where a name gives a salt, the structure may show the parent alone. Read-outs that look alike come from different tables or passages of the source.
Columns and labels:
[1] = test system: Ras-CVLS processing in COS cells; test: Cell-based COS cell assay: inhibition of Ras processing (Ras-CVLS); parameters: species or system monkey
Text: Transient expression of val^12 -Ha-Ras-CVLS and […] -Ha-Ras-CVLL in COS monkey kidney cells: Effect of farnesyl protein transferase inhibitors on Ras processing and on disordered cell growth induced by transforming Ras.
COS monkey kidney cells were transfected by electroporation with the plasmid pSV-SPORT (Gibco/BRL) containing a cDNA insert encoding either Ras-CVLS or Ras-CVLL, leading to transient overexpression of a Ras substrate for either farnesyl protein transferase or geranylgeranyl protein transferase I, respectively (see above).
Following electroporation, cells were plated into 6-well tissue culture dishes containing 1.5 ml of Dulbecco's-modified Eagle's media (GIBCO, Inc.) supplemented with 10% fetal calf serum and the appropriate farnesyl protein transferase inhibitors. After 24 hours, media was removed and fresh media containing the appropriate drugs was re-added.
48 hours after electroporation cells were examined under the microscope to monitor disordered cell growth induced by transforming Ras. Cells expressing transforming Ras become more rounded and refractile and overgrow the monolayer, reminiscent of the transformed phenotype. Cells were then photographed, washed twice with 1 ml of cold phosphate-buffered saline (PBS) and removed from the dish by scraping with a rubber policeman into 1 ml of a buffer containing 25 mM Tris, pH 8.0; 1 mM ethylenediamine tetraacetic acid; 1 mM phenylmethylsulfonyl fluoride; […]; and 0.1 mM pepstatin. Cells were lysed by homogenization and cell debris was removed by centrifugation at 2000× g for 10 min.
Cellular protein was precipitated by addition of ice-cold trichloroacetic acid and redissolved in […] of SDS-electrophoresis sample buffer. […] Proteins resolved on the gels were electroblotted onto nitrocellulose membranes for immunodetection.
After washing, membranes were incubated for one hour at room temperature with a 1:5000 dilution of secondary antibody, rabbit anti-rat lgG conjugated to horseradish peroxidase, in PBS containing 1% fetal calf serum. The presence of processed and unprocessed Ras-CVLS or Ras-CVLL was detected using a colorimetric peroxidase reagent (4-chloro-1-naphthol) as described by the manufacturer (Bio-Rad).

[2] = test system: DLD-1 (human colon carcinoma cells); test: In vivo anti-tumor studies, subcutaneous DLD-1 tumors in athymic nu/nu mice; parameters: species or system athymic nu/nu female mice; details: Mus musculus, DLD-1, po, read-out: Average % Tumor Inhibition
Method: Tumor bearing animals are selected and randomized when the tumors are established. Animals are treated with vehicle (β-cyclodextrin for i.p. or corn oil for p.o.) only or with a compound of the present invention in vehicle four times a day (QID) for 7 days per week for 4 weeks. The percent inhibition of tumor growth relative to vehicle controls is determined by tumor measurements.

[3] = test system: SW620-BAG human colon carcinoma cells expressing an activated K-ras gene; test: Cell mat assay, SW620-BAG tumor cells; assay type: cell-based
Method: (§1) Compound-induced colony inhibition was assayed by addition of serial dilutions of compound directly to the growth medium 24 h after tumor cell planting, and incubating cells for an additional 14 d to allow colony formation. Assays were terminated by rinsing monolayers twice with phosphate-buffered saline (PBS), fixing the monolayers with a 1% glutaraldehyde solution in PBS, then visualizing tumor cells by staining with X-Gal (Price, J., et al., Lineage analysis in the vertebrate nervous system by retrovirus-mediated gene transfer, Proc. Natl. Acad. Sci.84, 156-160(1987)). […] Both IC50 values were obtained by determining the density of tumor cells and mat cells by visual inspection and enumeration of cells per colony and the number of colonies under the microscope.
(§2) Additional assays were carried out by following essentially the same procedure as described above, but with substitution of alternative indicator tumor cell lines in place of the T24-BAG cells. The assays were conducted using either DLD-1-BAG human colon carcinoma cells expressing as activated K-ras gene or SW620-BAG human colon carcinoma cells expressing an activated K-ras gene.

[4] = target: T1, farnesyl protein transferase (FPT) (Rattus norvegicus, UniProt Q02293+Q04631); test: In vitro enzyme assay: inhibition of farnesyl protein transferase (FPT), [3H]farnesyl transfer to Ras-CVLS; assay type: biochemical
T1 construct: were partially purified from rat brain by ammonium sulfate fractionation; from tissue; host or cells: rat brain (ammonium sulfate fractionation, Q-Sepharose)
Method: 1. In vitro enzyme assays:
Inhibition of farnesyl protein transferase and geranylgeranyl protein transferase.
Human farnesyl protein transferase was also expressed in E. coli, using cDNA clones encoding both the a and b subunits. […] Human farnesyl protein transferase was partially-purified from the soluble protein fraction of E. coli as described above. […] Two forms of val^12 -Ha-Ras protein were prepared as substrates for these enzymes, differing in their carboxy terminal sequence. One form terminated in cysteine-valine-leucine-serine (Ras-CVLS) the other in cystein-valine-leucine-leucine (Ras-CVLL). Ras-CVLS is a substrate for the farnesyl protein transferase while Ras-CVLL is a substrate for geranylgeranyl protein transferase I. The cDNAs encoding these proteins were constructed so that the proteins contain an amino-terminal extension of 6 histidine residues. Both proteins were expressed in Escherichia coli and purified using metal chelate affinity chromatography. The radiolabelled isoprenyl pyrophosphate substrates, [^3 H]farnesyl pyrophosphate and [^3 H] geranylgeranyl pyrophosphate, were purchased from DuPont/New England Nuclear.
The reaction was allowed to proceed for 30 minutes at room temperature and then stopped with 0.5 ml of 4% sodium dodecyl sulfate (SDS) followed by 0.5 ml of cold 30% TCA. Samples were allowed to sit on ice for 45 minutes and precipitated Ras protein was then collected on GF/C filter paper mats using a Brandel cell harvester. […] Percent inhibition was calculated relative to the DMSO vehicle control.

[5] = test system: T24-BAG4 human bladder carcinoma cells expressing an activated H-ras gene; test: Cell mat assay, T24-BAG4 tumor cells; assay type: cell-based; details: read-out: Tumor (T-24) IC50
Method: as §1

[6] = test system: Normal human HEPM fibroblasts; test: Cell mat assay, normal cells (cell mat); assay type: cell-based; details: read-out: Normal IC50
Method: as §1

[7] = test system: DLD-1-BAG human colon carcinoma cells; test: Cell mat assay, DLD-1-BAG tumor cells; assay type: cell-based; details: read-out: Tumor (DLD-1) IC50
Method: as §1, §2

[8] = Primates, COS, read-out: Inhibition of Ras Processing IC50, Table 3, COS cells
[9] = […], Experiment No. 1, 50 mg/kg p.o., QID, 7 days per week for 4 weeks
[10] = […], Experiment No. 2, 10 mg/kg p.o., QID, 7 days per week for 4 weeks
[11] = Homo sapiens, SW-620, 336 h, Mat assay, 14 d, read-out: Tumor (SW620) IC50
[12] = […], Experiment No. 3, 50 mg/kg p.o., QID, 7 days per week for 4 weeks
[13] = […], Experiment No. 4, 10 mg/kg p.o., QID, 7 days per week for 4 weeks
[14] = Homo sapiens, 336 h, Mat assay, 14 d
[15] = Table 3, COS cells, read-out: Inhibition of Ras Processing IC50

O=C(Cc1cc[n+]([O-])cc1)N1CCN(C2c3ncc(Br)cc3CCc3cc(Cl)cc(Br)c32)CC1 (stereo not shown) [Example 11]
IC50 [1, 8]: < 0.25 µM

O=C(Cc1cc[n+]([O-])cc1)N1CCC([C@H]2c3ncc(Br)cc3CCc3cc(Cl)cc(Br)c32)CC1 [Example 9]
inhibition in vivo at 50 mg/kg [2, 9]: 68% | inhibition in vivo at 10 mg/kg [2, 10]: 19%

NC(=O)N1CCC(CC(=O)N2CCC(C3c4ccc(Cl)c(Br)c4CCc4cc(Br)cnc43)CC2)CC1 (stereo not shown) [Example 13B]
IC50 [3, 11]: > 3.1 µM

NC(=O)N1CCC(CC(=O)N2CCC(C3c4ccc(Cl)c(Br)c4CCc4cc(Br)cnc43)CC2)CC1 (single isomer, unassigned) [Example 13]
inhibition in vivo at 50 mg/kg [2, 9]: 61% | inhibition in vivo at 10 mg/kg [2, 10]: 7% | IC50 [3, 11]: > 1.6 µM

O=C(Cc1cc[n+]([O-])cc1)N1CCN([C@H]2c3ccc(Cl)c(Br)c3CCc3cc(Br)cnc32)CC1 [Example 5 · HCl salt]
IC50 [1, 8]: 0.01 µM

NC(=O)N1CCC(CC(=O)N2CCC(C3c4ccc(Cl)cc4C=Cc4cc(Br)cnc43)CC2)CC1 (stereo not shown) [Example 1]
inhibition in vivo at 50 mg/kg [2, 9]: 38.2% | inhibition in vivo at 10 mg/kg [2, 10]: 17.2% | inhibition in vivo at 50 mg/kg [2, 12]: 35.4% | inhibition in vivo at 10 mg/kg [2, 13]: 34%

O=C(Cc1cc[n+]([O-])cc1)N1CCC([C@@H]2c3ncc(Br)cc3CCc3cc(Cl)cc(Br)c32)CC1 [Example 9A]
IC50 ([1]; Primates, COS, Table 3, COS cells, read-out: Inhibition of Ras Processing IC50): 0.85 µM | IC50 [4]: > 0.088 µM | IC50 [5, 14]: < 1.6 µM

NC(=O)N1CCC(CC(=O)N2CCC(=C3c4ncc(Br)cc4CCc4cc(Cl)cc(Br)c43)CC2)CC1 [Example 8B]
IC50 ([6]; Mat assay, 14 d, normal cells): > 25 µM | inhibition in vivo at 50 mg/kg [2, 9]: 62.5% | inhibition in vivo at 10 mg/kg [2, 10]: 29.2% | IC50 [1, 15]: 0.28 µM | IC50 ([7]; Mat assay, 14 d): < 1.6 µM | IC50 ([5]; Mat assay, 14 d): < 1.6 µM | IC50 ([3]; Mat assay, 14 d, read-out: Tumor (SW620) IC50): 3.1 µM

O=C(Cc1cc[n+]([O-])cc1)N1CCC(=C2c3ncc(Br)cc3CCc3cc(Cl)cc(Br)c32)CC1 (racemic) [Example 7]
inhibition in vivo at 50 mg/kg [2, 9]: 76.5% | inhibition in vivo at 10 mg/kg [2, 10]: 35.1%

NC(=O)N1CCC(CC(=O)N2CCC(=C3c4ncc(Br)cc4CCc4cc(Cl)cc(Br)c43)CC2)CC1 [Example 8A]
IC50 ([6]; Homo sapiens, Fibroblast, 336 h, Mat assay, 14 d, normal cells): > 25 µM | IC50 [1, 15]: > 1 µM | IC50 ([7]; Homo sapiens, DLD-1, 336 h, Mat assay, 14 d): < 1.6 µM | IC50 [5, 14]: < 1.6 µM | IC50 [3, 11]: 3.1 µM

O=C(Cc1cc[n+]([O-])cc1)N1CCN([C@H]2c3ccc(Cl)cc3CCc3cc(Br)cnc32)CC1 [Example 16B]
inhibition in vivo at 10 mg/kg ([2]; […]): 50% | inhibition in vivo at 50 mg/kg ([2]; […]): 77%

O=C(Cc1cc[n+]([O-])cc1)N1CCC(C2c3ccc(Cl)c(Br)c3CCc3cc(Br)cnc32)CC1 (single isomer, unassigned) [Example 14A · HCl salt]
IC50 ([4]; Table 1, Ras-CVLS substrate, 30 minutes at room temperature, read-out: FPT IC50): < 0.0031 µM

O=C(Cc1cc[n+]([O-])cc1)N1CCN([C@@H]2c3ncc(Br)cc3CCc3cc(Cl)cc(Br)c32)CC1 [Example 11B]
inhibition in vivo at 10 mg/kg ([2]; […]): 17% | inhibition in vivo at 50 mg/kg ([2]; […]): 38.8%

NC(=O)N1CCC(CC(=O)N2CCC(C3c4ccc(Cl)cc4CCc4cc(Br)cnc43)CC2)CC1 (stereo not shown) [Example 4]
inhibition in vivo at 50 mg/kg [2, 9]: 41% | inhibition in vivo at 10 mg/kg [2, 10]: 18% | inhibition in vivo at 50 mg/kg [2, 12]: 41% | inhibition in vivo at 10 mg/kg [2, 13]: 14%

NC(=O)N1CCC(CC(=O)N2CCN([C@@H]3c4ccc(Cl)cc4CCc4cc(Br)cnc43)CC2)CC1 [Example 17]
IC50 [3, 11]: 25 µM

NC(=O)N1CCC(CC(=O)N2CCN([C@H]3c4ccc(Cl)c(Br)c4CCc4cc(Br)cnc43)CC2)CC1 [Example 6]
inhibition in vivo at 50 mg/kg [2, 9]: 61.2% | inhibition in vivo at 10 mg/kg [2, 10]: 35.4%

O=C(Cc1cc[n+]([O-])cc1)N1CCC(C2c3ccc(Cl)c(Br)c3CCc3cc(Br)cnc32)CC1 (single isomer, unassigned) [Example 14A]
inhibition in vivo at 50 mg/kg [2, 9]: 59% | inhibition in vivo at 10 mg/kg [2, 10]: 48%

NC(=O)N1CCC(CC(=O)N2CCN(C3c4ncc(Br)cc4CCc4cc(Cl)cc(Br)c43)CC2)CC1 (single isomer, unassigned) [Example 12B]
inhibition in vivo at 50 mg/kg [2, 9]: 83% | inhibition in vivo at 10 mg/kg [2, 10]: 37.7%

O=C(Cc1cc[n+]([O-])cc1)N1CCC(=C2c3ncc(Br)cc3CCc3cc(Cl)cc(Br)c32)CC1 [Example 7A]
inhibition in vivo at 10 mg/kg ([2]; Experiment No. 2, 10 mg/kg p.o., QID, 7 days per week for 4 weeks): 33.7% | IC50 [1, 15]: > 1 µM

O=C(Cc1cc[n+]([O-])cc1)N1CCN([C@H]2c3ccc(Cl)c(Br)c3CCc3cc(Br)cnc32)CC1 [Example 5]
inhibition in vivo at 10 mg/kg ([2]; […]): 24% | inhibition in vivo at 50 mg/kg ([2]; […]): 38%

O=C(Cc1cc[n+]([O-])cc1)N1CCC(=C2c3ncc(Br)cc3CCc3cc(Cl)cc(Br)c32)CC1 [Example 7B]
IC50 ([6]; Mat assay, 14 d, normal cells): > 25 µM | IC50 [5, 14]: < 1.6 µM

O=C(Cc1cc[n+]([O-])cc1)N1CCN([C@@H]2c3ccc(Cl)c(Br)c3CCc3cc(Br)cnc32)CC1 [Example 5A]
IC50 ([6]; Homo sapiens, Fibroblast, 336 h): > 25 µM | IC50 [4]: > 0.099 µM | IC50 ([7]; Homo sapiens, DLD-1, 336 h): 12.5 µM | IC50 ([5]; Homo sapiens, 336 h): 12.5 µM | IC50 ([3]; Homo sapiens, SW-620, 336 h, read-out: Tumor (SW620) IC50, Mat assay, 14 d): > 25 µM

O=C(Cc1cc[n+]([O-])cc1)N1CCN([C@H]2c3ncc(Br)cc3CCc3cc(Cl)cc(Br)c32)CC1 [Example 11A]
inhibition in vivo at 10 mg/kg ([2]; […]): 44.8% | inhibition in vivo at 50 mg/kg ([2]; […]): 63.8%
